Data published in patent US8524725B2, “Methods of using diaminopyrimidine as P2X3 and P2X⅔ receptor modulators for treatment of respiratory and gastrointestinal diseases” (Roche Palo Alto LLC, priority 2005, dated 2013).
Counter-ions that a name gives are not always drawn.

Row | melting point | SMILES
1 | 135 to 138.5 °C | COc1cc(C(C)C)c(Oc2cnc(N)nc2N)cc1Cl (as salt: trifluoroacetic acid salt)
2 | 111.4 to 116.9 °C | COc1cc(C(C)C)c(Oc2cnc(N[C@H](C)CO)nc2N)cc1Cl (as salt: hydrochloride)
3 | 63.5 to 69.4 °C | CNC(=O)OC[C@@H](C)Nc1ncc(Oc2cc(Cl)c(OC)cc2C(C)C)c(N)n1 (stereo in doubt)
4 | > 300 °C | COc1cc(Cc2cnc(NCCO)nc2N)c(C(C)C)cc1OC (as salt: HCl)
